Data from patent US20250134889A1, “TARGETING IRE1 KINASE AND FMRP FOR PROPHYLAXIS, MANAGEMENT AND TREATMENT OF ATHEROSCLEROSIS” (CEDARS-SINAI MEDICAL CENTER, priority 2022, published 2025).

Target: T1, IRE1 kinase activity (Mus musculus, UniProt Q9EQY0)
T1 construct: from tissue; host or cells: thioglycolate-elicited peritoneal macrophages of C57BL/6 mice
Assay: IRE1 and FMRP phosphorylation in peritoneal macrophages of TM-injected mice (western blot)
Format: in vivo
Conditions: C57BL/6, AMG-18 30 mg/kg 8 hours, TM 1 mg/kg
Description: FIGS. 1A-1K depict FMRP is a new inositol-requiring enzyme-1 (IRE1) kinase substrate. A representative blot is shown from at least n=3 independent experiments. Data are mean±SEM. Unpaired 1-test with Welch's correction or paired 1-test. * P≤0.05, ** P≤0.01, *** P≤0.001. • 1A. STING analysis of published IRE1 interactome proteins in relation to FMRP (Acosta-Alvear et al., 2018). • 1B. HEK293T cells were co-transfected with IRE1 and FMRP plasmids and stimulated with TG (600 nM) or TM (1 mg/ml) for 2 hours. Protein lysates were immunoprecipitated (IP) with anti-IRE1 or IgG (control) antibodies and analyzed by Western blotting using specific antibodies for FMRP and IRE1 (n=3). • 1C. RAW 264.7 mouse macrophages were treated with either oxLDL (50 μg/ml) or TG (300 nM) for 6 hours. Protein lysates were treated with λ Phosphatase (PPase) for 30 minutes and analyzed by western blotting using specific antibodies for pFMRP, FMRP, pIRE1, IRE1 and β-Actin. pFMRP/FMRP fold induction is depicted above the blots (n=6). • 1D. […] Protein lysates were analyzed by western blotting using specific antibodies for pFMRP, FMRP, pIRE1, IRE1 and β-Actin. pFMRP/FMRP-fold induction is depicted above the blots (n=5). • 1E. […] Protein lysates were analyzed by western blotting using specific antibodies for pFMRP, FMRP, pIRE1, IRE1 and β-Actin. pFMRP/FMRP fold induction is depicted above the blots (n=4). • 1F. […]

T1 sequence (Q9EQY0 21-977): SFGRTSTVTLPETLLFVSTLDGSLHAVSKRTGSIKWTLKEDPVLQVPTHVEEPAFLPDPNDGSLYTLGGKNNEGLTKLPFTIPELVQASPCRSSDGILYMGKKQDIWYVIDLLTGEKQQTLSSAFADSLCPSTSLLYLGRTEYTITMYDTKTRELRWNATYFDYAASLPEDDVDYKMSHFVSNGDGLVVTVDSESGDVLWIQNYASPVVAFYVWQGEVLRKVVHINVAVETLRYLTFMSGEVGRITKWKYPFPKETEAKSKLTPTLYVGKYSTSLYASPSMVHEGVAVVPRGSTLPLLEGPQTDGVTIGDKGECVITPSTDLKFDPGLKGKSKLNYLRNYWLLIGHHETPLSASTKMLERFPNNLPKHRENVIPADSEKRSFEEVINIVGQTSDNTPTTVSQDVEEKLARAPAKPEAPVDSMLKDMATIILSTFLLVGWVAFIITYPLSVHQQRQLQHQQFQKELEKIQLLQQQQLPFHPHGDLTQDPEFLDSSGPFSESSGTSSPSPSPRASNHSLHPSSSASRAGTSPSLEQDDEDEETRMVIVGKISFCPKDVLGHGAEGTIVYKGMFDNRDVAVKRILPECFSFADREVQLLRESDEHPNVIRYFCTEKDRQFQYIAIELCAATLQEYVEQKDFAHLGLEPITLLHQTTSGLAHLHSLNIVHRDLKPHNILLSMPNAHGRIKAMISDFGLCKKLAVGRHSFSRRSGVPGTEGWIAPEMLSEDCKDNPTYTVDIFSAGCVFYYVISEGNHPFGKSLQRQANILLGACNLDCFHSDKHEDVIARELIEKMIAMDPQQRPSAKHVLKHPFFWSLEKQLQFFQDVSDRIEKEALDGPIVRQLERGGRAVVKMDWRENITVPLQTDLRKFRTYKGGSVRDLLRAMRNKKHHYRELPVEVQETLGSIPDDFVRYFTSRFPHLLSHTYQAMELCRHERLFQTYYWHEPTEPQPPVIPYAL

FMRP phosphorylation in PM: reduced
IRE1 kinase activity (pIRE1) in PM: inhibited
Structure (SMILES): Cc1ccc2c(NS(=O)(=O)c3ccccc3Cl)cccc2c1Oc1ncccc1-c1ccnc(N[C@H]2CCCNC2)n1 [AMG-18]
